# Assay results reported in US20210196731A1, “COMPOSITIONS AND METHODS FOR TREATING OCULAR INFLAMMATION AND OCULAR SCARRING” (priority 2018, published 2021).
# Experiments:
# HTCFs = assay: Collagen Contraction Assay III (TGFB1-induced); format: cell-based, human; conditions: ASA 1000 or 1500 μg/ml, with or without gentamicin; TGFB1 2 ng/ml added at 48 hrs
# Description: A modified delayed release fibroblast populated collagen lattice model was used to assess inhibition of TGFB1-induced collagen contraction by ASA and gentamicin. HTCFs were seeded at a density of 2.5×10^5 cells/mL within an extracellular matrix (ECM) mixture containing 400 ul of rat tail-derived type I collagen (1.8 mg/ml), 80 ul of neutralizing solution (equal parts Waymouth's media (Gibco, CAT. NO: 11220035) and 0.275M NaOH) and 20 ul of HTCF conditioned media (concentrated to 25× to obtain a 1× final concentration within the 500 ul matrix solution). The cell-collagen solution was pipetted gently to ensure homogenous distribution of HTCFs while avoiding the production of air bubbles, then 500 ul were pipetted into each well of a 24-well tray. […]
# Tension was allowed to build up within the tethered matrix at 37 C and 5% CO2 for 72 hours before a sterile spatula was used to detach each collagen construct from the edges of the culture well. Plates were then immediately scanned on a flat bed laser scanner for a baseline area reading and then measured again regularly for a total of 4 days. […] The surface area of each collagen construct was measured using ImageJ (NIH) and standardized against the baseline surface area measurement to express changes in area as a percentage of original surface area. […]
# PPARγ = assay: Western blot of HTCF protein lysate, PPARγ; format: cell-based, human; conditions: AHGFs; ASA 100, 400, 1600 μg/ml, 48 hrs
# Description: Cells were lysed in lysis buffer (PhosphoSafe Extraction Reagent, Novagen) containing a protease inhibitor cocktail (P2714, Sigma-Aldrich). Crude protein lysate was quantified using a Pierce BCA protein assay kit (ThermoFisher, Mississauga, ON) and 10 ug from each sample was resolved using a Novex WedgeWell 4-20% tris-glycine gel (Invitrogen). Using an iBlot Gel Transfer Device (IB1001, Invitrogen), the separated protein was transferred to a nitrocellulose membrane (1B301001, iBlot Transfer Stack, Invitrogen) which was then blocked with 5% (w/v) bovine serum albumin (Sigma-Aldrich) in Tris buffered saline (TBST) for 1 hour at room temperature. The membranes were incubated overnight at 4° C. with primary antibody diluted in TBST containing 5% BSA (w/vol). Primary antibodies used were as follows: collagen 1 (ab138492, Abcam), αSMA (ab5694, Abcam), MMP9 (ab38898, Abcam), PPARγ (sc-7273, SantaCruz Biotechnology), SMAD2/3 (ab63672, Abcam), pSMAD2/3 (ab63399, Abcam) and GAPDH (sc-47724, Santa Cruz Biotechnology, Inc.). […] Imaging and relative densiometric quantification was accomplished using a ChemiDoc MP System (Bio-Rad Laboratories, Inc.) connected to Image Lab (Version 6, Bio-Rad Laboratories, Inc.).
smiles,measurement,setting,value
"CC(=O)Oc1ccccc1C(=O)O [ASA, acetylsalicylic acid]",HTCF-mediated collagen contraction before and after TGFb1 stimulus,HTCFs,"significantly impair HTCF-mediated contraction, at all concentrations assessed, both before and after stimulus with TGFb1"
same,expression of PPARγ,PPARγ,significantly induce expression of PPARγ
